Experimental data taken from PMC10649086 (Antimicrobial Agents and Chemotherapy, 2023).

Columns and labels:
[1] = tested on: SARS-CoV-2 M^pro P132H; conditions: cited from earlier work
[2] = biological target: T1, SARS-CoV-2 M^pro D248E (Severe acute respiratory syndrome coronavirus 2, UniProt P0DTC1, D3511E); conditions: cited from earlier work
[3] = biological target: T2, SARS-CoV-2 M^pro G15S (Severe acute respiratory syndrome coronavirus 2, UniProt P0DTC1, G3278S); conditions: cited from earlier work
[4] = biological target: T3, SARS-CoV-2 M^pro T135I (Severe acute respiratory syndrome coronavirus 2, UniProt P0DTC1, T3398I); conditions: cited from earlier work
[5] = biological target: T4, SARS-CoV-2 M^pro H164N (Severe acute respiratory syndrome coronavirus 2, UniProt P0DTC1, H3427N); conditions: cited from earlier work
[6] = tested on: SARS-CoV-2-EGFP replicon L50F; type: cell-based
[7] = tested on: SARS-CoV-2-EGFP replicon E166A; type: cell-based
[8] = tested on: SARS-CoV-2-EGFP replicon T21I + L50F; type: cell-based
[9] = tested on: SARS-CoV-2-EGFP replicon L167F; type: cell-based
[10] = tested on: SARS-CoV-2-EGFP replicon T21I; type: cell-based
[11] = tested on: SARS-CoV-2 D614G B.1 (ancestral); type: cell-based
[12] = tested on: SARS-CoV-2-EGFP replicon S144A; type: cell-based
[13] = tested on: SARS-CoV-2-EGFP replicon L50F + E166A + L167F; type: cell-based
[14] = tested on: SARS-CoV-2-EGFP replicon L50F + E166A; type: cell-based
[15] = biological target: SARS-CoV-2 M^pro L50F + E166A (Severe acute respiratory syndrome coronavirus 2, UniProt P0DTC1, E3429A/L3313F); type: biochemical
[16] = biological target: SARS-CoV-2 M^pro T21I + A173V (Severe acute respiratory syndrome coronavirus 2, UniProt P0DTC1, A3436V/T3284I); type: biochemical
[17] = biological target: SARS-CoV-2 M^pro E166V (Severe acute respiratory syndrome coronavirus 2, UniProt P0DTC1, E3429V); type: biochemical
[18] = biological target: SARS-CoV-2 M^pro E166A (Severe acute respiratory syndrome coronavirus 2, UniProt P0DTC1, E3429A); type: biochemical
[19] = biological target: SARS-CoV-2 M^pro L50F + E166A + L167F (Severe acute respiratory syndrome coronavirus 2, UniProt P0DTC1, E3429A/L3313F/L3430F); type: biochemical
[20] = biological target: SARS-CoV-2 M^pro T21I + E166V (Severe acute respiratory syndrome coronavirus 2, UniProt P0DTC1, E3429V/T3284I); type: biochemical
[21] = biological target: SARS-CoV-2 M^pro T21I + L50F (Severe acute respiratory syndrome coronavirus 2, UniProt P0DTC1, L3313F/T3284I); type: biochemical
[22] = biological target: SARS-CoV-2 M^pro L50F + E166V (Severe acute respiratory syndrome coronavirus 2, UniProt P0DTC1, E3429V/L3313F); type: biochemical
[23] = biological target: SARS-CoV-2 M^pro T21I + T304I (Severe acute respiratory syndrome coronavirus 2, UniProt P0DTC1, T3284I/T3567I); type: biochemical
[24] = biological target: T2, SARS-CoV-2 M^pro G15S; type: biochemical
[25] = biological target: SARS-CoV-2 M^pro L50F + T304I (Severe acute respiratory syndrome coronavirus 2, UniProt P0DTC1, L3313F/T3567I); type: biochemical
[26] = biological target: SARS-CoV-2 M^pro H172Y + P252L (Severe acute respiratory syndrome coronavirus 2, UniProt P0DTC1, H3435Y/P3515L); type: biochemical
[27] = biological target: SARS-CoV-2 M^pro T135I + T304I (Severe acute respiratory syndrome coronavirus 2, UniProt P0DTC1, T3398I/T3567I); type: biochemical
[28] = biological target: SARS-CoV-2 M^pro L50F + A173V (Severe acute respiratory syndrome coronavirus 2, UniProt P0DTC1, A3436V/L3313F); type: biochemical
[29] = biological target: SARS-CoV-2 M^pro T21I + S144A + T304I (Severe acute respiratory syndrome coronavirus 2, UniProt P0DTC1, S3407A/T3284I/T3567I); type: biochemical
[30] = biological target: SARS-CoV-2 M^pro H172Y (Severe acute respiratory syndrome coronavirus 2, UniProt P0DTC1, H3435Y); type: biochemical
[31] = biological target: T1, SARS-CoV-2 M^pro D248E; type: biochemical
[32] = biological target: T4, SARS-CoV-2 M^pro H164N; type: biochemical
[33] = biological target: SARS-CoV-2 M^pro T21I (Severe acute respiratory syndrome coronavirus 2, UniProt P0DTC1, T3284I); type: biochemical
[34] = biological target: SARS-CoV-2 M^pro L50F + F140L + L167F + T304I (Severe acute respiratory syndrome coronavirus 2, UniProt P0DTC1, F3403L/L3313F/L3430F/T3567I); type: biochemical
[35] = biological target: SARS-CoV-2 M^pro T21I + L50F + A193P + S301P (Severe acute respiratory syndrome coronavirus 2, UniProt P0DTC1, A3456P/L3313F/S3564P/T3284I); type: biochemical
[36] = biological target: SARS-CoV-2 M^pro T21I + C160F + A173V+ V186A + T304I (Severe acute respiratory syndrome coronavirus 2, UniProt P0DTC1, A3436V/C3423F/T3284I/T3567I/V3449A); type: biochemical
[37] = biological target: SARS-CoV-2 M^pro L50F (Severe acute respiratory syndrome coronavirus 2, UniProt P0DTC1, L3313F); type: biochemical
[38] = biological target: SARS-CoV-2 M^pro K90R (Severe acute respiratory syndrome coronavirus 2, UniProt P0DTC1, K3353R); type: biochemical
[39] = biological target: SARS-CoV-2 M^pro T21I + A173V + T304I (Severe acute respiratory syndrome coronavirus 2, UniProt P0DTC1, A3436V/T3284I/T3567I); type: biochemical
[40] = biological target: SARS-CoV-2 M^pro A260V (Severe acute respiratory syndrome coronavirus 2, UniProt P0DTC1, A3523V); type: biochemical
[41] = biological target: SARS-CoV-2 M^pro A173V + T304I (Severe acute respiratory syndrome coronavirus 2, UniProt P0DTC1, A3436V/T3567I); type: biochemical
[42] = biological target: T3, SARS-CoV-2 M^pro T135I; type: biochemical
[43] = biological target: SARS-CoV-2 M^pro Q189K (Severe acute respiratory syndrome coronavirus 2, UniProt P0DTC1, Q3452K); type: biochemical
[44] = biological target: SARS-CoV-2 M^pro T21I + S144A (Severe acute respiratory syndrome coronavirus 2, UniProt P0DTC1, S3407A/T3284I); type: biochemical
[45] = biological target: SARS-CoV-2 M^pro S144A (Severe acute respiratory syndrome coronavirus 2, UniProt P0DTC1, S3407A); type: biochemical

CC(C)(C)[C@H](NC(=O)C(F)(F)F)C(=O)N1C[C@H]2[C@@H]([C@H]1C(=O)N[C@H](C#N)C[C@@H]1CCNC1=O)C2(C)C [nirmatrelvir]
effect of P132H variant on inhibition [1]: no effect | resistance in the Mpro assay [2]: ~fourfold | resistance in the Mpro assay [3]: ~fourfold | resistance in the Mpro assay [4]: ~fourfold | resistance in the Mpro assay [5]: ~fourfold

N#C[C@H](C[C@@H]1CCCNC1=O)NC(=O)[C@H](CC1CC1)NC(=O)c1cc2cccc(Cl)c2[nH]1 [pomotrelvir]
EC50 ([6]; read-out: EC50 Mean (SD)): 0.014 µM | EC90 ([6]; read-out: EC90 Mean (SD)): 0.15 µM | EC50 ([7]; read-out: EC50 Mean (SD)): 0.11 µM | EC90 ([7]; read-out: EC90 Mean (SD)): 0.71 µM | EC50 ([8]; read-out: EC50 Mean (SD)): 0.11 µM | EC90 ([8]; read-out: EC90 Mean (SD)): 0.78 µM | EC50 ([9]; read-out: EC50 Mean (SD)): 0.056 µM | EC90 ([9]; read-out: EC90 Mean (SD)): 0.51 µM | EC50 ([10]; read-out: EC50 Mean (SD)): 0.033 µM | EC90 ([10]; read-out: EC90 Mean (SD)): 0.27 µM | EC50 ([11]; read-out: EC50 Mean (SD)): 0.151 µM | EC90 ([11]; read-out: EC90 Mean (SD)): 0.547 µM | EC50 ([12]; read-out: EC50 Mean (SD)): 0.092 µM | EC90 ([12]; read-out: EC90 Mean (SD)): 0.56 µM | EC50 ([13]; read-out: EC50 Mean (SD)): 1.4 µM | EC90 ([13]; read-out: EC90 Mean (SD)): 8.3 µM | EC50 ([14]; read-out: EC50 Mean (SD)): 0.41 µM | EC90 ([14]; read-out: EC90 Mean (SD)): 1.8 µM

GC376
IC50 [15]: 0.27 µM | IC50 [16]: 0.08 µM | IC50 [17]: 0.66 µM | IC50 [18]: 0.32 µM | IC50 [19]: 0.76 µM | IC50 [20]: 0.59 µM | IC50 [21]: 0.02 µM | IC50 [22]: 0.43 µM | IC50 [23]: 0.05 µM | IC50 [24]: 0.02 µM | IC50 [25]: 0.06 µM | IC50 [26]: 0.28 µM | IC50 [27]: 0.07 µM | IC50 [28]: 0.06 µM | IC50 [29]: 0.19 µM | IC50 [30]: 0.41 µM | IC50 [31]: 0.03 µM | IC50 [32]: 0.08 µM | IC50 [33]: 0.02 µM | IC50 [34]: 0.17 µM | IC50 [35]: 0.07 µM | IC50 [36]: 0.09 µM | IC50 [37]: 0.02 µM | IC50 [38]: 0.01 µM | IC50 [39]: 0.09 µM | IC50 [40]: 0.02 µM | IC50 [41]: 0.1 µM | IC50 [42]: 0.02 µM | IC50 [43]: 0.05 µM | IC50 [44]: 0.12 µM | IC50 [45]: 0.12 µM
